Tested on: gut microbiota
Experiment: Gut microbiome analysis (16S rRNA sequencing of fecal samples) in STAM model of NASH
Format: in vivo, C57BL/6J mice
From the text: The study is reported in accordance with Animal Research: Reporting of In Vivo Experiments (ARRIVE) guidelines. C57BL/6J mice were obtained from Japan SLC, Inc. (Japan). All animals used in this study were cared for under the following guidelines: Act on Welfare and Management of Animals (Ministry of the Environment, Japan, Act No. 105 of Oct. 1, 1973), standards relating to the care and management of laboratory animals and relief of pain (Notice No. 88 of the Ministry of the Environment, Japan, Apr. 28, 2006) and the guidelines for proper conduct of animal experiments (Science Council of Japan, Jun. 1, 2006). Protocol approvals were obtained from SMC Laboratories, Japan's IACUC (Study reference no: […] Mice were maintained in a specific pathogen-free (SPF) facility under controlled conditions of temperature (23±3° C.), humidity (50±20%), lighting (12-hour artificial light and dark cycles; light from 8:00 to 20:00) and air exchange. The STAM model of NASH was induced as previously described [D10]. Mice were given a single subcutaneous injection of 200 μg streptozotocin (STZ, Sigma-Aldrich, USA) solution 2 days after birth and fed with a high-fat diet (HFD, 57 kcal % fat, Cat #HFD32, CLEA Japan, Inc., Japan) from 4-9 weeks of age. All mice develop liver steatosis and diabetes and at […] mice had established steatohepatitis, histologically. Studygroups: There were five study groups, described below. Eight mice were included in each study group. Eight NASH mice were orally administered vehicle supplemented with AFO-202 Beta Glucan at a dose of 1 mg/kg in a volume of 5 mL/kg once daily from 6 to 9 weeks of age. Eight NASH mice were orally administered vehicle supplemented with Telmisartan at a dose of 10 mg/kg once daily from 6 to 9 weeks of age. Frequency: Fecal samples were collected at the 6 weeks of age (before administration) and 9 weeks of age (before sacrifice). Procedure: At 6 weeks of age, fecal samples were collected from each mouse by clean catch method. […] A sterile petri dish was placed on the bench. Gently massage the abdomen, position the bottom of mouse over a fresh petri dish, and collect 1-2 fecal pellets. At sacrifice, fecal samples were aseptically collected from cecum. The tubes with feces were placed on ice immediately. These tubes were snap frozen in liquid nitrogen and stored at -80° C. for shipping. In this analysis, the 16S rRNA sequence data acquired by the next-generation sequencer from the fecal […] was used to perform community analysis using the QIIME2 program for microbial community analysis. The raw read data in FASTQ format output from the next-generation sequencer was trimmed to remove adapter sequences and low QV regions that may be included in the data. Cutadapt was used to remove adapter sequences from DNA sequencing reads. Trimmomatic was used as read trimming tool for Illumina NGS data. The adapter sequence was trimmed using the adapter trimming program “cutadapt” if the Trimming of the region at the end of the read sequence overlapped the corresponding sequence by at least one base (mismatch tolerance: 20%). When reads containing N were present in at least one of Read1 and Read2, both Read1 and Read2 were removed. Trimming of low QV regions was performed on the read data after processing using the QV trimming program “Trimmomatic” under the following conditions. The window of 20 bases is slid from the 5' side, and the area where the average QV is less than 20 is trimmed. After trimming, only the reads with more than 50 bases remaining in both Read1 and Read2 were taken as output. The microbial community analysis based on 16S rRNA sequence was performed on the sequence data trimmed in the previous section using the microbial community analysis program “QIIME2”. The annotation program “sklearn” included in QIIME2 is used to annotate the ASV (OTU) sequences. […]

Q: What does the source list for `CCCc1nc2c(C)cc(-c3nc4ccccc4n3C)cc2n1Cc1ccc(-c2ccccc2C(=O)O)cc1` [Telmisartan]?
A: Abundance Lachnospiraceae/[Ruminococcus]/gnavus (post, line r79): 260; Abundance Bacteroidaceae/Bacteroides/— (post, line r80): 1596; Abundance S24-7/—/— (post, line r81): 125; Abundance Lachnospiraceae/[Ruminococcus]/gnavus (post, line r83): 281; Abundance Ruminococcaceae/Oscillospira/— (post, line r84): 393; Abundance Alcaligenaceae/Sutterella/— (post, line r86): 63; Abundance S24-7/—/— (post, line r87): 54; Abundance Other/Other/Other (post, line r90): 0; Abundance Lachnospiraceae/[Ruminococcus]/gnavus (post, line r91): 325; Abundance S24-7/—/— (post, line r92): 153; Abundance Rikenellaceae/—/— (post, line r93): 134; Abundance Lachnospiraceae/[Ruminococcus]/gnavus (post, line r94): 30; Abundance Lachnospiraceae/—/— (post, line r95): 359; Abundance Clostridiaceae/Other/Other (post, line r96): 39; Abundance Lachnospiraceae/—/— (post, line r97): 239; Abundance Ruminococcaceae/Oscillospira/— (post, line r98): 138; Abundance Enterococcaceae/Enterococcus/— (post, line r99): 0; Abundance Rikenellaceae/—/— (post, line r100): 96; Abundance S24-7/—/— (post, line r101): 79; Abundance Lactobacillaceae/Lactobacillus/reuteri (post, line r102): 0; Abundance Bacteroidaceae/Bacteroides/acidifaciens (post, line r103): 127; Abundance Ruminococcaceae/Oscillospira/— (post, line r104): 451; Abundance Enterobacteriaceae/Escherichia/coli (post, line r105): 0; Abundance Ruminococcaceae/Oscillospira/— (post, line r106): 280; Abundance —/—/— (post, line r107): 254; Abundance S24-7/—/— (post, line r108): 92; Abundance —/—/— (post, line r109): 0; Abundance Other/Other/Other (post, line r110): 251; Abundance Lachnospiraceae/—/— (post, line r111): 163; Abundance Lachnospiraceae/[Ruminococcus]/gnavus (post, line r112): 63; Abundance Lachnospiraceae/—/— (post, line r113): 117; Abundance Enterobacteriaceae/Klebsiella/Other (post, line r114): 33; Abundance Lachnospiraceae/—/— (post, line r115): 187; Abundance —/—/— (post, line r117): 261; Abundance Lactobacillaceae/Lactobacillus/— (post, line r118): 0; Abundance Other/Other/Other (post, line r119): 248; Abundance —/—/— (post, line r120): 0; Abundance Erysipclotrichaceae/Allobaculum/— (post, line r121): 59; Abundance —/—/— (post, line r122): 84; Abundance Lachnospiraceae/—/— (post, line r123): 271; Abundance —/—/— (post, line r124): 173; Abundance Other/Other/Other (post, line r125): 269; Abundance Lactobacillaceae/Lactobacillus/reuteri (post, line r126): 0; Abundance Ruminococcaceae/Oscillospira/— (post, line r127): 273; Abundance Lachnospiraceae/—/— (post, line r128): 139; Abundance S24-7/—/— (post, line r129): 125; Abundance S24-7/—/— (post, line r130): 111; Abundance Lachnospiraceae/—/— (post, line r131): 119; Abundance S24-7/—/— (post, line r133): 74; Abundance Lachnospiraceae/—/— (post, line r134): 98; Abundance —/—/— (post, line r135): 376; Abundance Coriobacteriaceae/Adlercreutzia/— (post, line r136): 30; Abundance —/—/— (post, line r137): 118; Abundance Clostidiaceae/Other/Other (post, line r138): 0; Abundance Turicibacteraceae/Turicibacter/— (post, line r139): 0; Abundance Ruminococcaceae/Ruminococcus/— (post, line r140): 143; Abundance Ruminococcaceae/Oscillospira/— (post, line r141): 119; Abundance Dehalobacteriaceae/Dehalobacterium/— (post, line r142): 268; Abundance Staphylococcaceae/Staphylococcus/Other (post, line r143): 34; Abundance Rikenellaceae/—/— (post, line r144): 97; Abundance Lachnospiraceae/—/— (post, line r145): 98; Abundance —/—/— (post, line r146): 68; Abundance Staphylococcaceae/Staphylococcus/sciuri (post, line r147): 41; Abundance —/—/— (post, line r148): 0; Abundance Ruminococcaceae/Ruminococcus/— (post, line r149): 124; Abundance Coriobacteriaceae/Adlercreutzia/— (post, line r150): 0; Abundance Ruminococcaceae/Oscillospira/— (post, line r151): 120; Abundance Lachnospiraceae/Clostridium/Other (post, line r152): 40; Abundance Lachnospiraceae/Coprococcus/— (post, line r153): 85; Abundance Desulfovibrionaceae/—/— (post, line r154): 148; Abundance —/—/— (post, line r155): 103; Abundance Lachnospiraceae/—/— (post, line r156): 272; Abundance Dehalobacteriaceae/Dehalobacterium/— (post, line r157): 239; Abundance Coriobacteriaceae/Adlercreutzia/— (post, line r158): 0; Abundance Lachnospiraceae/—/— (post, line r159): 119; Abundance Lachnospiraceae/—/— (post, line r160): 14; Abundance S24-7/—/— (post, line r162): 51; Abundance Streptococcaceae/Streptococcus/— (post, line r163): 44; Abundance Lachnospiraceae/[Ruminococcus]/gnavus (post, line r164): 37; Abundance Lachnospiraceae/—/— (post, line r165): 173; Abundance Lachnospiraceae/—/— (post, line r166): 10; Abundance Coriobacteriaceae/Adlercreutzia/— (post, line r167): 8; Abundance Lachnospiraceae/—/— (post, line r168): 57; Abundance Erysipelotrichaceae/Clostridium/cocleatum (post, line r169): 119; Abundance Lachnospiraceae/—/— (post, line r171): 81; Abundance Bacteroidaceae/Bacteroides/— (post, line r172): 468; Abundance Ruminococcaceae/Oscillospira/— (post, line r173): 53; Abundance Ruminococcaceae/—/— (post, line r174): 72; Abundance Lachnospiraceae/Other/Other (post, line r175): 90; Abundance Lachnospiraceae/Dorea/— (post, line r176): 154; Abundance Lachnospiraceae/—/— (post, line r177): 94; Abundance S24-7/—/— (post, line r178): 0; Abundance Lachnospiraceae/—/— (post, line r179): 138; Abundance Lactobacillaceae/Lactobaccilus/Other (post, line r180): 0; Abundance —/—/— (post, line r181): 48; Abundance Ruminococcaceae/Oscillospira/— (post, line r182): 101; Abundance S24-7/—/— (post, line r184): 71; Abundance [Mogibacteriaceae]/—/— (post, line r185): 28; Abundance Peptococcaceae/—/— (post, line r186): 42; Abundance —/—/— (post, line r187): 40; Abundance —/—/— (post, line r188): 213; Abundance S24-7/—/— (post, line r189): 19; Abundance: Ruminococcaceae, Oscillospira, — (pre (baseline), line r191): 97; Abundance: Lachnospiraceae, [Ruminococcus], gnavus (pre (baseline), line r192): 33
